Experimental data taken from ChEMBL document CHEMBL1150776, “Naturally occurring pentacyclic triterpenes as inhibitors of glycogen phosphorylase: synthesis, structure-activity relationships, and X-ray crystallographic studies” (J Med Chem, 2008).
Active and inactive are the calls of the source. The rule behind the calls is not given here.

The molecules below were run against T1, Glycogen phosphorylase, muscle form (Oryctolagus cuniculus) (UniProt P00489) (assay: (§1) Inhibition of rabbit muscle glycogen phosphorylase A assessed as phosphate release from glucose-1-phosphate).
T1 sequence (whole entry): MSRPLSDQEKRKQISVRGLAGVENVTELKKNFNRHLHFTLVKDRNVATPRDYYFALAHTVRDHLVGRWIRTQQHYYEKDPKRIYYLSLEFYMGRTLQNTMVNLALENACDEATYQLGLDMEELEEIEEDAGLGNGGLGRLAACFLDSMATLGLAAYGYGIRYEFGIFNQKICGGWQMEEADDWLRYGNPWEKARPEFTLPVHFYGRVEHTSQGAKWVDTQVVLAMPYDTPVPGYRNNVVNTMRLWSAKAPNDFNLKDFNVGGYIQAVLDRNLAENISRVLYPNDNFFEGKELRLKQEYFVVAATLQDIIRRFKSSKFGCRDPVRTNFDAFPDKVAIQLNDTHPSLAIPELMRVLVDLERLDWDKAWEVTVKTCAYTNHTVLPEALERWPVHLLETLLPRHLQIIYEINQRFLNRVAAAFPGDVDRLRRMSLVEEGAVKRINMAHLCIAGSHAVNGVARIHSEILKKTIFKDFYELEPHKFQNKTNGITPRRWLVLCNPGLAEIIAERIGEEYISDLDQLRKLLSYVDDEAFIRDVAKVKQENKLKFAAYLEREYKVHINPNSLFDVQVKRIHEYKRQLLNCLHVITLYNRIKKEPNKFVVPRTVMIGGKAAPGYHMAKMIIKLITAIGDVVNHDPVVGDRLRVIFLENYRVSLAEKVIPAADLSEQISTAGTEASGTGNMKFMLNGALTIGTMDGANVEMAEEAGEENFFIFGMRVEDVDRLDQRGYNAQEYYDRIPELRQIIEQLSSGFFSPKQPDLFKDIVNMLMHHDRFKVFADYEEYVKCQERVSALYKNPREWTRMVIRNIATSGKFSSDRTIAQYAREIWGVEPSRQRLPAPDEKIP
In the case of C[C@H]1[C@H](C)CC[C@]2(C(=O)O)CC[C@]3(C)C(=CC[C@@H]4[C@@]5(C)C[C@@H](O)[C@H](O)[C@@](C)(CO)[C@@H]5[C@H](O)C[C@]43C)[C@H]12, the Activity is reported as “inactive”. For C[C@H]1[C@H](C)CC[C@]2(C(=O)O[C@@H]3O[C@H](CO[C@@H]4O[C@H](CO)[C@@H](O[C@@H]5O[C@@H](C)[C@@H](O)[C@H](O)[C@@H]5O)[C@H](O)[C@H]4O)[C@@H](O)[C@H](O)[C@H]3O)CC[C@]3(C)C(=CC[C@@H]4[C@@]5(C)C[C@@H](O)[C@H](O)[C@@](C)(CO)[C@@H]5[C@H](O)C[C@]43C)[C@H]12, the Activity was “inactive”.

These molecules were tested against T2, Glycogen phosphorylase, muscle form (Oryctolagus cuniculus, UniProt P00489) (assay: as §1).
T2 sequence (P00489 whole entry): T1 sequence (whole entry)
With C[C@H]1[C@H](C)CC[C@]2(C(=O)O[C@@H]3O[C@H](CO)[C@@H](O)[C@H](O)[C@H]3O)CC[C@]3(C)C(=CC[C@@H]4[C@@]5(C)C[C@@H](O)[C@H](O)C(C)(C)[C@@H]5CC[C@]43C)[C@H]12 the IC50 was 106 µM. C=C(C)[C@@H]1CC[C@]2(C(=O)O)CC[C@]3(C)[C@H](CC[C@@H]4[C@@]5(C)CC[C@H](O)[C@@](C)(CO)[C@@H]5CC[C@]43C)[C@@H]12 was tested, and the IC50 was 16 µM. C[C@H]1[C@H](C)CC[C@]2(C(=O)O)CC[C@]3(C)C(=CC[C@@H]4[C@@]5(C)CCC(=O)C(C)(C)[C@@H]5CC[C@]43C)[C@H]12 [URSONIC ACID] gave an IC50 of 57 µM. CC1(C)[C@@H](O)CC[C@]2(C)[C@H]3CC=C4[C@@H]5C[C@@](C)(C(=O)O)CC[C@]5(C)CC[C@@]4(C)[C@]3(C)CC[C@@H]12 was tested, and the IC50 was 82 µM. For C[C@H]1[C@H](C)CC[C@]2(C(=O)O)CC[C@]3(C)C(=CC[C@@H]4[C@@]5(C)CC[C@H](O)C(C)(C)[C@@H]5CC[C@]43C)[C@H]12 [URSOLIC ACID], the IC50 was 9 µM. For C[C@H]1[C@H](C)CC[C@]2(C(=O)O[C@@H]3O[C@H](CO)[C@@H](O)[C@H](O)[C@H]3O)CC[C@]3(C)C(=CC[C@@H]4[C@@]5(C)CC[C@H](O)C(C)(C)[C@@H]5CC[C@]43C)[C@H]12, the IC50 was 97 µM. For C=C(C)[C@@H]1CC[C@]2(CO)CC[C@]3(C)[C@H](CC[C@@H]4[C@@]5(C)CC[C@H](O)C(C)(C)[C@@H]5CC[C@]43C)[C@@H]12 [BETULIN], the IC50 was 17 µM. CC1(C)[C@@H](O)CC[C@]2(C)[C@H]3C(=O)C=C4[C@@H]5C[C@@](C)(C(=O)O)CC[C@]5(C)CC[C@@]4(C)[C@]3(C)CC[C@@H]12 [ENOXOLONE] showed an IC50 of 66 µM. Molecule C[C@H]1[C@H](C)CC[C@]2(C(=O)O)CC[C@]3(C)C(=CC[C@@H]4[C@@]5(C)CC[C@@H](O)C(C)(C)[C@@H]5CC[C@]43C)[C@H]12 has an IC50 of 19 µM. For CC1(C)CC[C@]2(C(=O)O[C@@H]3O[C@H](CO)[C@@H](O)[C@H](O)[C@H]3O)CC[C@]3(C)C(=CC[C@@H]4[C@@]5(C)CC[C@H](O)C(C)(C)[C@@H]5CC[C@]43C)[C@@H]2C1, the IC50 was 293 µM. For CC1(C)[C@@H](O[C@H]2O[C@H](C(=O)O)[C@@H](O)[C@H](O)[C@H]2O[C@@H]2O[C@H](C(=O)O)[C@@H](O)[C@H](O)[C@H]2O)CC[C@]2(C)[C@H]3C(=O)C=C4[C@@H]5C[C@@](C)(C(=O)O)CC[C@]5(C)CC[C@@]4(C)[C@]3(C)CC[C@@H]12 [GLYCYRRHIZIN], the IC50 was 822 µM. With C=C(C)[C@@H]1CC[C@]2(C(=O)O)CC[C@]3(C)[C@H](CC[C@@H]4[C@@]5(C)CC[C@H](O)C(C)(C)[C@@H]5CC[C@]43C)[C@@H]12 [BETULINIC ACID] the IC50 was 43 µM.

The molecules below were run against T1, Glycogen phosphorylase, muscle form (Oryctolagus cuniculus) (assay: Inhibition of rabbit muscle glycogen phosphorylase A assessed as phosphate release from glucose-1-phosphate at 2000 uM).
For C[C@H]1[C@H](C)CC[C@]2(C(=O)O[C@@H]3O[C@H](CO[C@@H]4O[C@H](CO)[C@@H](O[C@@H]5O[C@H](C)[C@H](O)[C@@H](O)[C@H]5O)[C@H](O)[C@H]4O)[C@@H](O)[C@H](O)[C@H]3O)CC[C@]3(C)C(=CC[C@@H]4[C@@]5(C)C[C@@H](O)[C@H](O)[C@@](C)(CO)[C@@H]5CC[C@]43C)[C@H]12, the Activity was “inactive”.
